Values after ≈ are worked out from the molar mass of the structure shown.

Test [1] has as its system Mycolicibacterium smegmatis. Kind of test: Antimycobacterial activity against Mycobacterium smegmatis ATCC 14468 by agar dilution method. Format: functional. Background: Agar dilution tests growth on a series of plates holding different concentrations.
For test [2], the system named is Mycobacterium tuberculosis. Briefly: Antimycobacterial activity against Mycobacterium tuberculosis H37Rv by agar dilution method. Format: functional.

For orientation: MIC means the lowest concentration found to suppress growth. High values mean weaker potency, low ones greater potency. `CN1CC2=C(OC(N)=C(C#N)C2c2ccc(N(C)C)cc2)/C(=C/c2ccc(N(C)C)cc2)C1` (centres undefined): the MIC in test [1] was found to be 28.3 µM (≈ 12.5 µg/mL); in test [2] it was 0.43 µM (≈ 0.19 µg/mL).

For `COc1ccc(/C=C2\CN(C)CC3=C2OC(N)=C(C#N)C3c2ccc(OC)cc2)cc1` (centres undefined), the results for the MIC in test [1] and in test [2] were 60.2 µM (≈ 25 µg/mL) and 30.1 µM (≈ 12.5 µg/mL), respectively.

`NNC(=O)c1ccncc1` [ISONIAZID]: the MIC turned out to be 45.6 µM (≈ 6.25 µg/mL) in test [1] and 0.36 µM (≈ 0.0494 µg/mL) in test [2].

On to `CN1CC2=C(OC(N)=C(C#N)C2c2ccccc2)/C(=C/c2ccccc2)C1` (centres undefined), for which the MIC in test [1] amounted to 70.4 µM (≈ 25 µg/mL); in test [2] it was 35.2 µM (≈ 12.5 µg/mL).

For the compound `CN1CC2=C(OC(N)=C(C#N)C2c2cccc([N+](=O)[O-])c2)/C(=C/c2cccc([N+](=O)[O-])c2)C1` (centres undefined), the MIC in test [1] was 56.2 µM (≈ 25 µg/mL); in test [2], 1.75 µM (≈ 0.78 µg/mL).

For the compound `Cc1ccc(/C=C2\CN(C)CC3=C2OC(N)=C(C#N)C3c2ccc(C)cc2)cc1` (centres undefined), the figures for the MIC in test [1] and in test [2] were 65.3 µM (≈ 25 µg/mL) and 16.3 µM (≈ 6.26 µg/mL), respectively.

As to `COc1ccccc1/C=C1\CN(C)CC2=C1OC(N)=C(C#N)C2c1ccccc1OC` (centres undefined), the MIC in test [1] was determined as 30.1 µM (≈ 12.5 µg/mL); in test [2] it was 15.1 µM (≈ 6.26 µg/mL).

In the case of `Cc1ccccc1/C=C1\CN(C)CC2=C1OC(N)=C(C#N)C2c1ccccc1C` (centres undefined), the minimum inhibitory concentration (MIC) in test [1] turned out to be 32.6 µM (≈ 12.5 µg/mL); in test [2], 16.3 µM (≈ 6.26 µg/mL).

Regarding `CN1CC2=C(OC(N)=C(C#N)C2c2ccc(Cl)cc2)/C(=C/c2ccc(Cl)cc2)C1` (centres undefined), the MIC in test [1] is 3.68 µM (≈ 1.56 µg/mL); in test [2], 0.92 µM (≈ 0.39 µg/mL).

Turning to `CN1CC2=C(OC(N)=C(C#N)C2c2ccco2)/C(=C/c2ccco2)C1` (centres undefined), the minimum inhibitory concentration (MIC) in test [1] and in test [2] was 37.3 µM (≈ 12.5 µg/mL) throughout.

On to `CN1CC2=C(OC(N)=C(C#N)C2c2cccs2)/C(=C/c2cccs2)C1` (centres undefined), for which the MIC in test [1] is 34.1 µM (≈ 12.5 µg/mL); in test [2], 68.1 µM (≈ 25 µg/mL).

On to `CN1CC2=C(OC(N)=C(C#N)C2c2ccccc2Cl)/C(=C/c2ccccc2Cl)C1` (centres undefined), for which the MIC in test [1] was 59 µM (≈ 25 µg/mL); in test [2], 1.84 µM (≈ 0.781 µg/mL).

On to `CN1CC2=C(OC(N)=C(C#N)C2c2cccc(F)c2)/C(=C/c2cccc(F)c2)C1` (centres undefined), for which the figures for the MIC in test [1] and in test [2] were 32 µM (≈ 12.5 µg/mL) and 0.99 µM (≈ 0.388 µg/mL), respectively.

Turning to `CN1CC2=C(OC(N)=C(C#N)C2c2ccc(Cl)cc2Cl)/C(=C/c2ccc(Cl)cc2Cl)C1` (centres undefined), the MIC in test [1] was found to be 50.7 µM (≈ 25 µg/mL); in test [2], 25.4 µM (≈ 12.5 µg/mL).

On to `CN1CC2=C(OC(N)=C(C#N)C2c2ccc(F)cc2)/C(=C/c2ccc(F)cc2)C1` (centres undefined), for which the MIC in test [1] is 32 µM (≈ 12.5 µg/mL); in test [2], 0.97 µM (≈ 0.38 µg/mL).

For the compound `COc1c(N2CCNC(C)C2)c(F)cc2c(=O)c(C(=O)O)cn(C3CC3)c12` (centres undefined) [GATIFLOXACIN], the MIC in test [1] and in test [2] was 2.08 µM (≈ 0.781 µg/mL) each time.

As to `CN1CC2=C(OC(N)=C(C#N)C2/C=C/c2ccccc2)/C(=C/C=C/c2ccccc2)C1` (centres undefined), the MIC in test [1] and in test [2] was 30.7 µM (≈ 12.5 µg/mL) throughout.

The values are drawn from ChEMBL document CHEMBL1140558, “An atom efficient, solvent-free, green synthesis and antimycobacterial evaluation of 2-amino-6-methyl-4-aryl-8-[(E)-arylmethylidene]-5,6,7,8-tetrahydro-4H-pyrano[3,2-c]pyridine-3-carbonitriles” (2007).
